In PubChem BioAssay (NCI):
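1) Cells in 96-well plates. 2) Compound, 48 h, 5 concentrations. 3) Linear interpolation between surrounding doses. 4) Unreached endpoint = highest concentration. Here, GI50 denotes the concentration required for 50% inhibition of growth. The concentration for full growth arrest is given as TGI.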

Columns and labels:
Test in all cases: NCI anticancer screen, dose series, 48 h
[1] = test system: HL-60(TB) leukemia
[2] = test system: PC-3 prostate
[3] = test system: HCT-116 colon
[4] = test system: MDA-MB-435
[5] = test system: TK-10 renal
[6] = test system: SN12C renal
[7] = test system: KM12 colon
[8] = test system: UO-31 renal
[9] = test system: M14 melanoma
[10] = test system: HT29 colon
[11] = test system: SF-539 CNS
[12] = test system: DU-145 prostate
[13] = test system: SNB-19 CNS
[14] = test system: 786-0 renal
[15] = test system: UACC-257 melanoma
[16] = test system: SR leukemia
[17] = test system: SF-295 CNS
[18] = test system: OVCAR-8 ovarian
[19] = test system: A498 renal

| SMILES | TGI [1] [µM] | TGI [2] [µM] | TGI [3] [µM] | TGI [4] [µM] | TGI [5] [µM] | TGI [6] [µM] | TGI [7] [µM] | TGI [8] [µM] | TGI [9] [µM] | TGI [10] [µM] | TGI [11] [µM] | TGI [12] [µM] | TGI [13] [µM] | TGI [14] [µM] | TGI [15] [µM] | TGI [16] [µM] | TGI [17] [µM] | TGI [18] [µM] | TGI [19] [µM] | GI50 [3] [µM] |
| --- | --- | --- | --- | --- | --- | --- | --- | --- | --- | --- | --- | --- | --- | --- | --- | --- | --- | --- | --- | --- |
| CCCCCCCN1C(=O)C(O)(c2ccc(C3(O)C(=O)N(CCCCCCC)c4ccccc43)s2)c2ccccc21 (stereo not given) | 3.42 | 3.8 | 3.18 | 3.87 | 5.67 | 3.42 | 3.36 | 3.14 | 3.69 | 3.28 | 3.34 | 3.29 | 8.7 | 3.61 | 4.42 | 18.4 | 3.42 | 4.41 | – | – |
| COc1cc2c(cc1OC)C(N)CC2=O (stereo not given) | – | > 100 | > 100 | > 100 | > 100 | > 100 | > 100 | > 100 | > 100 | > 100 | > 100 | > 100 | > 100 | > 100 | > 100 | > 100 | > 100 | > 100 | > 100 | – |
| COC(=O)[C@@H]1C[C@@H]2c3ccccc3N(S(=O)(=O)c3ccccc3)[C@@H]2N1C(=O)OC | > 100 | > 100 | > 100 | > 100 | > 100 | > 100 | > 100 | > 100 | – | > 100 | > 100 | > 100 | > 100 | > 100 | > 100 | > 100 | > 100 | > 100 | – | – |
| C/C=C/C(=O)N1C(=O)OC[C@@H]1c1ccccc1 | 43 | 37.5 | 38.1 | 70 | 32.2 | 37.2 | 29.3 | 35.2 | 36.6 | 33.7 | 38.5 | 37.4 | 41.4 | 35 | 39.9 | – | > 100 | 38.5 | 45.7 | – |
| COc1cc2c(cc1OCc1ccccc1)NC(=S)[C@@H]1CCCN1C2=S | – | > 100 | > 100 | > 100 | > 100 | > 100 | > 100 | > 100 | > 100 | > 100 | > 100 | > 100 | > 100 | > 100 | > 100 | > 100 | > 100 | > 100 | > 100 | – |
| Cc1c(C)c(S(=O)(=O)N(CCCN)OCCCN)c(C)c2c1OC(C)(C)C2 | – | 43.3 | > 100 | > 100 | > 100 | > 100 | 38.9 | > 100 | 34.1 | > 100 | – | > 100 | 63.5 | 68 | 89.3 | > 100 | 98.9 | > 100 | 42 | – |
| NC(=O)c1[nH]cnc1/N=N/SCC(N)C(=O)O (stereo not given) | 6.66 | > 100 | > 100 | > 100 | > 100 | > 58 | > 62.5 | > 93.9 | > 100 | > 100 | > 100 | > 100 | > 100 | > 100 | > 100 | – | > 75.1 | > 100 | > 100 | – |
| O=C(O)CCCOc1cc(-c2ccccc2F)nc2cc3c(cc12)OCO3 | – | > 100 | > 100 | > 100 | > 100 | > 100 | > 100 | – | > 100 | > 100 | 63.2 | > 100 | – | > 100 | – | > 100 | – | > 100 | – | 3.99 |
| COc1cc(/C=C/c2cc(/C=C/c3ccc(O)c(OC)c3)oc(=O)c2)ccc1O | – | 20.3 | > 65.8 | 22.5 | > 30 | > 71.4 | 18 | > 100 | > 100 | > 22.6 | > 100 | 6.82 | > 100 | 34.9 | > 29.6 | > 31.2 | 19.4 | > 100 | 13.6 | – |
| COc1cc(N(CCC#N)CCC#N)ccc1/C(N=Nc1ccccc1)=N/NC(=O)c1cc(Br)ccc1O | 36.6 | > 100 | 44.1 | > 100 | > 100 | 96.6 | > 100 | 57.5 | > 100 | 71.4 | 83.7 | 74.3 | > 100 | > 100 | 62.8 | 43.7 | > 100 | > 100 | – | – |
| O=C1NC(N2CCCC(CO)C2)=N/C1=C\c1ccc(Cl)cc1 (stereo not given) | > 100 | > 100 | > 100 | > 100 | > 100 | > 100 | > 100 | > 100 | > 100 | > 100 | > 100 | > 100 | > 100 | > 100 | > 100 | > 100 | > 100 | > 100 | – | – |
| CN1CCC23c4c5ccc(O)c4OC2c2[nH]c4ccccc4c2CC3(O)C1C5 (stereo not given) | – | > 100 | > 100 | 36.9 | 43.5 | > 100 | > 100 | 30.9 | 34.8 | > 100 | – | > 100 | > 100 | 39.6 | 36.8 | > 100 | > 100 | > 100 | 38 | – |
| CCS(=O)(=O)CCn1cnc2c1c(=O)n(C)c(=O)n2C | > 100 | > 100 | > 100 | > 100 | > 100 | > 100 | > 100 | > 100 | > 100 | > 100 | > 100 | > 100 | > 100 | > 100 | > 100 | – | > 100 | > 100 | > 100 | – |
| O=C1/C(=C/c2ccco2)N=C(c2ccccc2)N1c1cc2cc(Sc3ccccc3)ccc2[nH]1 | 5.96 | > 25 | > 25 | > 25 | – | > 25 | – | > 25 | > 25 | > 25 | > 25 | > 25 | > 25 | > 25 | – | > 25 | – | > 25 | > 25 | – |
| Cc1ccc(S(=O)(=O)Oc2nc3ccccc3nc2N(S(=O)(=O)c2ccc(C)cc2)S(=O)(=O)c2ccc(C)cc2)cc1 | > 100 | > 100 | > 100 | > 100 | > 100 | > 100 | > 100 | > 100 | > 100 | > 100 | > 100 | > 100 | > 100 | > 100 | > 100 | – | > 100 | > 100 | > 100 | – |
| CC#CCCN(CC#N)Cc1ccccc1 | > 100 | > 100 | > 100 | > 100 | > 100 | > 100 | > 100 | > 100 | > 100 | > 100 | – | > 100 | > 100 | > 100 | > 100 | > 100 | > 100 | > 100 | 37.2 | – |
| COc1ccc([C@@]23OC[C@@H]4[C@@H](OC[C@@H]42)c2cc(OC)c(OC)cc23)cc1OC | > 100 | > 100 | > 100 | > 100 | > 100 | – | > 100 | > 100 | > 100 | – | > 100 | > 100 | > 100 | > 100 | – | > 100 | > 100 | – | > 100 | – |
| C[C@]12[C@@H]3CC[C@H]1[C@@H](OC(=O)Nc1cc([N+](=O)[O-])cc([N+](=O)[O-])c1)C(=O)N2CC3 | > 100 | > 100 | > 100 | > 100 | > 100 | > 100 | > 100 | > 100 | > 100 | > 100 | – | > 100 | > 100 | > 100 | > 100 | > 100 | > 100 | > 100 | > 100 | – |
| CC1OC(OC2C(O)COC(OC3C(C)OC(OC4C(OC(=O)[C@]56CCC(C)(C)C[C@@H]5C5=CCC7[C@@]8(C)C[C@H](O)[C@H](OC9OC(CO)C(O)C(OC%10OC(CO)C(O)C(O)C%10O)C9O)[C@@](C)(CO)[C@@H]8CC[C@@]7(C)[C@]5(C)CC6)OCC(O)C4O)C(O)C3O)C2O)C(O)C(O)C1O (stereo not given in full) | – | 23.9 | 32.7 | 42.1 | 34.2 | 25.2 | 55.2 | 16 | 26.3 | 31.5 | 34.4 | 29 | 30.4 | 30 | 35.6 | 25.8 | 28.4 | 32.8 | 26 | – |
| COc1ccc2c(c1)CCC1=CC3(CCC12C)SCCS3 (stereo not given) | 8.36 | > 10 | – | > 10 | > 10 | > 10 | > 10 | – | > 10 | > 10 | – | > 10 | > 10 | > 10 | > 10 | > 10 | > 10 | > 10 | – | – |
| Clc1nc2n(c1/C=C/c1cccs1)CCS2 | > 100 | > 100 | > 100 | > 100 | > 100 | > 100 | > 100 | > 100 | > 100 | 96.6 | – | > 100 | > 100 | 95.5 | > 100 | – | > 100 | > 100 | 57.9 | – |
| O=C(CCN1CCOCC1)Nc1ccc2sc3ccccc3c(=O)c2n1 | > 100 | > 100 | > 100 | > 100 | > 100 | > 100 | > 100 | > 100 | > 100 | > 100 | > 100 | > 100 | > 100 | > 100 | > 100 | > 100 | > 100 | > 100 | – | – |
| O=C(c1ccc(Br)cc1)n1c2ccc(Br)cc2c2nc3ccccc3nc21 | > 100 | > 100 | > 100 | > 100 | > 100 | > 100 | > 100 | > 100 | > 100 | > 100 | > 100 | > 100 | > 100 | > 100 | > 100 | > 100 | > 100 | > 100 | – | – |
| Cc1cc(OCC(=O)N/N=C/C(Br)=C/c2ccccc2)nc(SCC(=O)N/N=C/C(Br)=C/c2ccccc2)n1 | > 100 | > 100 | > 100 | > 100 | – | > 100 | > 100 | > 100 | > 100 | > 100 | – | > 100 | > 100 | > 100 | > 100 | > 100 | > 100 | – | > 100 | – |
| C=CC[C@@H]1C(=O)[C@@]2(O[Si](C(C)C)(C(C)C)C(C)C)CC[C@@H]1C[C@H]2NC(=O)OCC(Cl)(Cl)Cl | – | > 100 | > 100 | > 100 | > 100 | > 100 | > 100 | > 100 | > 100 | > 100 | – | > 100 | > 100 | > 100 | > 100 | > 100 | 85.8 | > 100 | > 100 | – |
